Data: ChEMBL document CHEMBL6083179, “Glucagon-like peptide-1 analogs: Miracle drugs are blooming?” (Eur J Med Chem, 2024)
Values belong to the compound of their own block, whether it stands above or below them.

What was measured:
Glucagon-1 [1] = molecular target: T1, Glucagon-1 (Xenopus laevis, UniProt O42143); experiment: Inhibition of Xenopus laevis GLP-1A (1 to 37 residues)
T1 sequence (O42143 whole entry): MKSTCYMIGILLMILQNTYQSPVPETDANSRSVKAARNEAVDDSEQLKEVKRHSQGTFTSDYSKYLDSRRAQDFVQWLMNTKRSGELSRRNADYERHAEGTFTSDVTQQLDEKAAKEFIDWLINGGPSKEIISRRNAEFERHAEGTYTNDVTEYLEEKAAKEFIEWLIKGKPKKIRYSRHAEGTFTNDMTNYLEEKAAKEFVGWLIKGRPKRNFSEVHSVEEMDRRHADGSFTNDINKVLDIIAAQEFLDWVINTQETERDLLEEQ

Glucagon-1 [2] = molecular target: T1, Glucagon-1; experiment: Inhibition of Xenopus laevis GLP-1B (1 to 32 residues)
Glucagon-1 [3] = molecular target: T1, Glucagon-1; experiment: Inhibition of Xenopus laevis GLP-1C (1 to 30 residues)
[4] = Inhibition of Ornithorhynchus anatinus GLP-1

Compound: H-HAEGTFTNDMTNYLEEKAAKEFVGWLIKGRPK-OH
IC50 (Glucagon-1 [3]): 43.4 nM

Compound: H-HFDGVYTDYFSRYLEEKATNEFIDWLLKGQE-OH
IC50 [4]: 7.4 nM

Compound: H-HSEGTFTNDVTRLLEEKATSEFIAWLLKGLE-OH
IC50 [4]: 7.4 nM

Continued, values first:

IC50 (Glucagon-1 [1]): 12.7 nM
Compound: CC[C@H](C)[C@H](NC(=O)[C@H](CC(C)C)NC(=O)[C@H](Cc1c[nH]c2ccccc12)NC(=O)[C@H](CC(=O)O)NC(=O)[C@@H](NC(=O)[C@H](Cc1ccccc1)NC(=O)[C@H](CCC(=O)O)NC(=O)[C@H](CCCCN)NC(=O)[C@H](C)NC(=O)[C@H](C)NC(=O)[C@H](CCCCN)NC(=O)[C@H](CCC(=O)O)NC(=O)[C@H](CC(=O)O)NC(=O)[C@H](CC(C)C)NC(=O)[C@H](CCC(N)=O)NC(=O)[C@H](CCC(N)=O)NC(=O)[C@@H](NC(=O)[C@@H](NC(=O)[C@H](CC(=O)O)NC(=O)[C@H](CO)NC(=O)[C@@H](NC(=O)[C@H](Cc1ccccc1)NC(=O)[C@@H](NC(=O)CNC(=O)[C@H](CCC(=O)O)NC(=O)[C@H](C)NC(=O)[C@@H](N)Cc1c[nH]cn1)[C@@H](C)O)[C@@H](C)O)C(C)C)[C@@H](C)O)[C@@H](C)CC)C(=O)N[C@@H](CC(N)=O)C(=O)NCC(=O)NCC(=O)N1CCC[C@H]1C(=O)N[C@@H](CO)C(=O)N[C@@H](CCCCN)C(=O)N[C@@H](CCC(=O)O)C(=O)N[C@H](C(=O)N[C@H](C(=O)N[C@@H](CO)C(=O)O)[C@@H](C)CC)[C@@H](C)CC

IC50 (Glucagon-1 [2]): 2.9 nM
Compound: CC[C@H](C)[C@H](NC(=O)[C@H](CC(C)C)NC(=O)[C@H](Cc1c[nH]c2ccccc12)NC(=O)[C@H](CCC(=O)O)NC(=O)[C@@H](NC(=O)[C@H](Cc1ccccc1)NC(=O)[C@H](CCC(=O)O)NC(=O)[C@H](CCCCN)NC(=O)[C@H](C)NC(=O)[C@H](C)NC(=O)[C@H](CCCCN)NC(=O)[C@H](CCC(=O)O)NC(=O)[C@H](CCC(=O)O)NC(=O)[C@H](CC(C)C)NC(=O)[C@H](Cc1ccc(O)cc1)NC(=O)[C@H](CCC(=O)O)NC(=O)[C@@H](NC(=O)[C@@H](NC(=O)[C@H](CC(=O)O)NC(=O)[C@H](CC(N)=O)NC(=O)[C@@H](NC(=O)[C@H](Cc1ccc(O)cc1)NC(=O)[C@@H](NC(=O)CNC(=O)[C@H](CCC(=O)O)NC(=O)[C@H](C)NC(=O)[C@@H](N)Cc1c[nH]cn1)[C@@H](C)O)[C@@H](C)O)C(C)C)[C@@H](C)O)[C@@H](C)CC)C(=O)N[C@@H](CCCCN)C(=O)NCC(=O)N[C@@H](CCCCN)C(=O)N1CCC[C@H]1C(=O)N[C@@H](CCCCN)C(=O)O
